Data published in patent US20060147348A1, “Sampling device and methods” (priority 2004, published 2006).
Where two headings read alike, the source gives them in different places.

Test: Retention of THC in the mouth after smoking marijuana: THC in saliva and tongue mucus by quantitative GC/MS
Type: in vivo, human
Settings: for concentration at 5 min / concentration at 2 h / concentration at 6 h / concentration at 24 h: human, inhaled; for concentration at 5 min: 5 minutes post smoking 0.2 g of marijuana; for concentration at 2 h: 2 hours post smoking 0.2 g of marijuana; for concentration at 6 h: 6 hours post smoking 0.2 g of marijuana; for concentration at 24 h: 24 hours post smoking 0.2 g of marijuana
Description: 0.2 grams (g) of marijuana was smoked by a test subject. Mucosal surface samples and saliva were collected at different time intervals by scraping the top side of the tongue a polypropylene card having a width×length×thickness of about 2 inches×about 3 inches×about 0.04 inches, using the about 2 inch edge of the card as an abrasive. The mucus specimens were dripped into a glass vial for further analysis. Saliva specimens were collected at the same times by directly expectorating saliva into glass vials.
The specimens were analyzed by a quantitative GC/MS method for the detection of THC.

[1] = saliva (expectorated), read-out: THC Concentration, Saliva
[2] = tongue mucus (mucosal scrapings), mucosal scrapings from the top of the tongue, read-out: THC Concentration, Mucus

With `CCCCCc1cc(O)c2c(c1)OC(C)(C)[C@@H]1CCC(C)=C[C@@H]21` [THC, Tetrahydrocannabinol] the concentration at 5 min [1] was 115 ng/mL, the concentration at 2 h [1] was 16 ng/mL and the concentration at 6 h [1] was 11 ng/mL. It also gave a concentration at 24 h [1] of 2.1 ng/mL, a concentration at 5 min [2] of 587 ng/mL and a concentration at 2 h [2] of 412 ng/mL. For the same molecule, the concentration at 6 h [2] was 123 ng/mL, the concentration at 24 h [2] was 44 ng/mL and the “Retention of THC in mucus specimen compared with saliva” value (mucus vs saliva, 5 minutes to 24 hours after smoking 0.2 g of marijuana) was “significantly higher concentration and for longer time than in saliva”.
